Laboratory results reported in US20020055528A1, “Artemisinin analogs having antimalarial, antiproliferative, and antitumor activities and chemoselective methods of making the same” (priority 1999, published 2002).

What was measured:
Type in all cases: cell-based
A498 = experiment: NCI 60 cell line screen (SRB), Renal Cancer; conditions: for Log10TGI: PG=0
SNB-19 = experiment: NCI 60 cell line screen (SRB), CNS Cancer; conditions: for Log10TGI: PG=0
SN12C = experiment: NCI 60 cell line screen (SRB), Renal Cancer; conditions: for Log10TGI: PG=0
PC-3 = experiment: NCI 60 cell line screen (SRB), Prostate Cancer; conditions: for Log10TGI: PG=0
K-562 = experiment: NCI 60 cell line screen (SRB), Leukemia; conditions: for Log10TGI: PG=0
U251 = experiment: NCI 60 cell line screen (SRB), CNS Cancer; conditions: for Log10TGI: PG=0
DU-145 = experiment: NCI 60 cell line screen (SRB), Prostate Cancer; conditions: for Log10TGI: PG=0
SK-MEL2 = experiment: NCI 60 cell line screen (SRB), Melanoma; conditions: for Log10TGI: PG=0
HS 578T = experiment: NCI 60 cell line screen (SRB), Breast Cancer; conditions: for Log10TGI: PG=0
HT29 = experiment: NCI 60 cell line screen (SRB), Colon Cancer; conditions: for Log10TGI: PG=0
UACC-257 = experiment: NCI 60 cell line screen (SRB), Melanoma; conditions: for Log10TGI: PG=0
SK-MEL-28 = experiment: NCI 60 cell line screen (SRB), Melanoma

SMILES | Log10TGI (A498) | Log10GI50 (A498; PG=+50) | Log10GI50 (A498; Table IV (LC50, PG=−50)) | Log10TGI (SNB-19) | Log10GI50 (SN12C; SNI2C, PG=+50) | Log10GI50 (SN12C; Table IV (LC50, PG=−50), SN12C) | Log10TGI (PC-3) | Log10TGI (K-562) | Log10GI50 (K-562; PG=+50) | Log10GI50 (K-562; Table IV (LC50, PG=−50)) | Log10TGI (U251) | Log10GI50 (U251; PG=+50) | Log10GI50 (U251; Table IV (LC50, PG=−50)) | Log10TGI (DU-145) | Log10GI50 (DU-145; PG=+50) | Log10GI50 (DU-145; Table IV (LC50, PG=−50)) | Log10GI50 (HS 578T; PG=+50) | Log10GI50 (HT29; PG=+50) | Log10GI50 (HT29; Table IV (LC50, PG=−50)) | Log10TGI (UACC-257) | other results
CC1=C(C=Cc2cccc(C=CC3=C(C)C4CCC(C)C5CCC6(C)OOC45C(O3)O6)c2)OC2OC3(C)CCC4C(C)CCC1C24OO3 (stereo not shown) [VII-h] | >−4.00 log10M | −6.29 log10M | >−4.00 log10M | >−4.00 log10M | −7.31 log10M | −4.00 log10M | >−4.00 log10M | −7.70 log10M | −7.70 log10M | >−4.00 log10M | >−4.00 log10M | −7.26 log10M | >−4.00 log10M | >−4.00 log10M | −6.16 log10M | >−4.00 log10M | −7.41 log10M | −7.37 log10M | >−4.00 log10M | >−4.00 log10M | Log10GI50 or Log10LC50 (see condition) (SNB-19; PG=+50): −7.09 log10M; Log10GI50 or Log10LC50 (see condition) (SNB-19; Table IV (LC50, PG=−50)): >−4.00 log10M; Log10TGI (SN12C; SN12C): >−4.00 log10M; Log10 GI50 (PG=+50) or LC50 (PG=−50) (PC-3; PG=+50): −7.70 log10M; Log10 GI50 (PG=+50) or LC50 (PG=−50) (PC-3; Table IV (LC50, PG=−50)): >−4.00 log10M; Log10TGI (SK-MEL2): −5.34 log10M; Log10 GI50 or LC50 (per conditions) (SK-MEL2; PG=+50): −6.87 log10M; Log10 GI50 or LC50 (per conditions) (SK-MEL2; Table IV (LC50, PG=−50)): >−4.00 log10M; Log10TGI (HS 578T): >−4.00 log10M; Log10GI50 (HS 578T; Table IV (LC50, PG=−50)): >−4.00 log10M; Log10TGI (HT29): >−4.00 log10M; Log10 GI50 (PG=+50) or Log10 LC50 (PG=−50) (UACC-257; PG=+50): −7.21 log10M; Log10 GI50 (PG=+50) or Log10 LC50 (PG=−50) (UACC-257; Table IV (LC50, PG=−50)): >−4.00 log10M
CC1=C(C=Cc2cccc(C=CC3=C(C)C4CCC(C)C5CCC6(C)OOC45C(O3)O6)c2)OC2OC3(C)CCC4C(C)CCC1C24OO3 (stereo not shown) [VII-g] | −4.05 log10M | −6.04 log10M | >−4.00 log10M | >−4.00 log10M | −6.69 log10M | >−4.00 log10M | >−4.00 log10M | −7.31 log10M | −7.31 log10M | >−4.00 log10M | >−4.00 log10M | −6.86 log10M | >−4.00 log10M | >−4.00 log10M | −5.71 log10M | >−4.00 log10M | −7.14 log10M | −6.88 log10M | >−4.00 log10M | −4.58 log10M | Log10GI50 or Log10LC50 (see condition) (SNB-19; PG=+50): −6.48 log10M; Log10GI50 or Log10LC50 (see condition) (SNB-19; Table IV (LC50, PG=−50)): >−4.00 log10M; Log10TGI (SN12C; SN12C): >−4.00 log10M; Log10 GI50 (PG=+50) or LC50 (PG=−50) (PC-3; PG=+50): −7.32 log10M; Log10 GI50 (PG=+50) or LC50 (PG=−50) (PC-3; Table IV (LC50, PG=−50)): >−4.00 log10M; Log10TGI (SK-MEL2): >−4.00 log10M; Log10 GI50 or LC50 (per conditions) (SK-MEL2; PG=+50): −6.39 log10M; Log10 GI50 or LC50 (per conditions) (SK-MEL2; Table IV (LC50, PG=−50)): >−4.00 log10M; Log10TGI (HS 578T): −4.32 log10M; Log10GI50 (HS 578T; Table IV (LC50, PG=−50)): >−4.00 log10M; Log10TGI (HT29): >−4.00 log10M; Log10 GI50 (PG=+50) or Log10 LC50 (PG=−50) (UACC-257; PG=+50): −7.09 log10M; Log10 GI50 (PG=+50) or Log10 LC50 (PG=−50) (UACC-257; Table IV (LC50, PG=−50)): >−4.00 log10M
CC(=O)O[C@H]1C(=O)[C@@]2(C)[C@H]([C@H](OC(=O)c3ccccc3)[C@]3(O)C[C@H](OC(=O)[C@H](O)[C@@H](NC(=O)c4ccccc4)c4ccccc4)C(C)=C1C3(C)C)[C@]1(OC(C)=O)CO[C@@H]1C[C@@H]2O [Paclitaxel, paclitaxel, reference compound] |  | −7.14 log10M | −4.13 log10M | >−4.00 log10M | −9.53 log10M | >−4.00 log10M | >−4.00 log10M | −10.83 log10M | −10.83 log10M | >−4.00 log10M | −4.32 log10M | −11.29 log10M | −4.15 log10M | >−4.00 log10M | −9.38 log10M | >−4.00 log10M | <-13.00 log10M | <-13.00 log10M | −4.39 log10M | −4.52 log10M | 
CC1=C(C=Cc2cccc(C=CC3=C(C)C4CCC(C)C5CCC6(C)OOC45C(O3)O6)c2)OC2OC3(C)CCC4C(C)CCC1C24OO3 (stereo not shown) [VII-f] | −4.37 log10M | −4.79 log10M | >−4.00 log10M | >−4.33 log10M | −5.73 log10M | >−4.00 log10M | >−4.00 log10M | −6.18 log10M | −6.18 log10M | >−4.00 log10M | >−4.00 log10M | −6.03 log10M | >−4.00 log10M | >−4.00 log10M | −5.16 log10M | >−4.00 log10M | −5.94 log10M | −5.90 log10M | >−4.00 log10M | >−4.00 log10M | Log10GI50 or Log10LC50 (see condition) (SNB-19; PG=+50): −5.85 log10M; Log10GI50 or Log10LC50 (see condition) (SNB-19; Table IV (LC50, PG=−50)): >−4.33 log10M; Log10TGI (SN12C; SN12C): >−4.00 log10M; Log10 GI50 (PG=+50) or LC50 (PG=−50) (PC-3; PG=+50): −6.30 log10M; Log10 GI50 (PG=+50) or LC50 (PG=−50) (PC-3; Table IV (LC50, PG=−50)): >−4.00 log10M; Log10TGI (SK-MEL-28; PG=0): >−4.00 log10M; Log10GI50 (SK-MEL-28; PG=+50): −4.00 log10M; Log10GI50 (SK-MEL-28; Table IV (LC50, PG=−50)): >−4.00 log10M; Log10TGI (SK-MEL2): −4.26 log10M; Log10 GI50 or LC50 (per conditions) (SK-MEL2; PG=+50): −5.85 log10M; Log10 GI50 or LC50 (per conditions) (SK-MEL2; Table IV (LC50, PG=−50)): >−4.00 log10M; Log10TGI (HS 578T): −4.31 log10M; Log10GI50 (HS 578T; Table IV (LC50, PG=−50)): >−4.00 log10M; Log10TGI (HT29): >−4.00 log10M; Log10 GI50 (PG=+50) or Log10 LC50 (PG=−50) (UACC-257; PG=+50): −6.02 log10M; Log10 GI50 (PG=+50) or Log10 LC50 (PG=−50) (UACC-257; Table IV (LC50, PG=−50)): >−4.00 log10M
